In patent US11697648B2, “Fused pyrimidine pyridinone compounds as JAK inhibitors” (THERAVANCE BIOPHARMA R&D IP, LLC, priority 2019, dated 2023):

Assays:
[1] = tested on: Caco-2 cell monolayers; assay: Caco-2 permeation assay; format: in vitro ADME; conditions: 5 μM, A-B direction, with Verapamil (25 μM)
Summary of the method: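 Passive A-to-B permeability with P-gp inhibited by verapamil (25 μM); compound at 5 μM, n=2. Both compartments sampled at t0 and t120 and quantified by LC-MS/MS, giving apparent permeability in cm/sec from flux, area and concentration.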

[2] = target: Tyk2 (Homo sapiens (Human), UniProt P29597); assay: Biochemical Tyk2 kinase assay (LanthaScreen)
Summary of the method: (§1)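 GST-JAK + GFP-STAT1 peptide, HEPES pH 7.5/MgCl2/EGTA/Brij-35 buffer; cpd preincubation 1 h RT; ATP start, 1 h RT; stop with 10 mM EDTA + 2 nM Tb-anti-pSTAT1; TR-FRET 520/495. 4-parameter IC50 → pKi (Cheng-Prusoff).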

[3] = Colon and plasma mouse pharmacokinetics; format: in vivo; conditions: mouse, colon tissue / plasma; male Balb/c mice, 10 mg/kg PO; ratio of the colon AUC to the plasma AUC
Summary of the method: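 Male Balb/c mice given 10 mg/kg PO in 1% HPMC + 0.1% Tween-80; plasma, colon tissue and colon contents taken at 0.5, 2 and 6 h, quantified by LC/MS/MS. Non-compartmental analysis on means of 2 animals/time point; colon:plasma ratio taken as colon AUC over plasma AUC.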

[4] = target: JAK2 (Homo sapiens (Human), UniProt O60674); assay: Biochemical JAK2 kinase assay (LanthaScreen)
Summary of the method: as §1

[5] = target: JAK1 (Homo sapiens (Human), UniProt P23458); assay: Biochemical JAK1 kinase assay (LanthaScreen)
Summary of the method: as §1

JAK2, sequence (O60674 whole entry): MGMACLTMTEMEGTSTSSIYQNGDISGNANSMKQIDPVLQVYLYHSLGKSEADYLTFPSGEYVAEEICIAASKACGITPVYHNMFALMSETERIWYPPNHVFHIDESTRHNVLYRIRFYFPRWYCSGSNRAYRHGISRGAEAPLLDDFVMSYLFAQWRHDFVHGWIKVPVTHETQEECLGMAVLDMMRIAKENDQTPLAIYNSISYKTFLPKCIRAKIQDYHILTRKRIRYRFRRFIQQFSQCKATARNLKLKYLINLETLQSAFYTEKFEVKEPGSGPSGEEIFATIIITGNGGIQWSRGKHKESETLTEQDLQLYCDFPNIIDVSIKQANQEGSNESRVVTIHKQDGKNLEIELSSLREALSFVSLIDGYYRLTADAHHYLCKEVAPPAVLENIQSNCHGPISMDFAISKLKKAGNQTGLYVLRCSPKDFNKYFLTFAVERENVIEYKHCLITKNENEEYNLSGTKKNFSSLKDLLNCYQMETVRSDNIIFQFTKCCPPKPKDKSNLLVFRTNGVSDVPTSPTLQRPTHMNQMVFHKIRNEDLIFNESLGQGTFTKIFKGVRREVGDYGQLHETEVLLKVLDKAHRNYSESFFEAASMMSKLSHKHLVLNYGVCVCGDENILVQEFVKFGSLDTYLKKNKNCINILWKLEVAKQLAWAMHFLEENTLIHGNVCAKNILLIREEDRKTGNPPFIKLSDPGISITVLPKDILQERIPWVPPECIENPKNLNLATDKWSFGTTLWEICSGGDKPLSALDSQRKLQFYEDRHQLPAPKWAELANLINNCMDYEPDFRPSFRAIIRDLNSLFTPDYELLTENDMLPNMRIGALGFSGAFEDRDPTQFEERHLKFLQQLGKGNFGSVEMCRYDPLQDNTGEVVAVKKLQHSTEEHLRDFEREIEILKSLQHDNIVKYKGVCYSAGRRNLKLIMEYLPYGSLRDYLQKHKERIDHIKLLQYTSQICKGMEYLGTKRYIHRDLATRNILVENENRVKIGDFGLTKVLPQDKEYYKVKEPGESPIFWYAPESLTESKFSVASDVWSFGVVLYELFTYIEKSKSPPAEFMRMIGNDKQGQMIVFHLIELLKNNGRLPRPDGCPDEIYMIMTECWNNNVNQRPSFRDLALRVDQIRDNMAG
JAK1, sequence (P23458 whole entry): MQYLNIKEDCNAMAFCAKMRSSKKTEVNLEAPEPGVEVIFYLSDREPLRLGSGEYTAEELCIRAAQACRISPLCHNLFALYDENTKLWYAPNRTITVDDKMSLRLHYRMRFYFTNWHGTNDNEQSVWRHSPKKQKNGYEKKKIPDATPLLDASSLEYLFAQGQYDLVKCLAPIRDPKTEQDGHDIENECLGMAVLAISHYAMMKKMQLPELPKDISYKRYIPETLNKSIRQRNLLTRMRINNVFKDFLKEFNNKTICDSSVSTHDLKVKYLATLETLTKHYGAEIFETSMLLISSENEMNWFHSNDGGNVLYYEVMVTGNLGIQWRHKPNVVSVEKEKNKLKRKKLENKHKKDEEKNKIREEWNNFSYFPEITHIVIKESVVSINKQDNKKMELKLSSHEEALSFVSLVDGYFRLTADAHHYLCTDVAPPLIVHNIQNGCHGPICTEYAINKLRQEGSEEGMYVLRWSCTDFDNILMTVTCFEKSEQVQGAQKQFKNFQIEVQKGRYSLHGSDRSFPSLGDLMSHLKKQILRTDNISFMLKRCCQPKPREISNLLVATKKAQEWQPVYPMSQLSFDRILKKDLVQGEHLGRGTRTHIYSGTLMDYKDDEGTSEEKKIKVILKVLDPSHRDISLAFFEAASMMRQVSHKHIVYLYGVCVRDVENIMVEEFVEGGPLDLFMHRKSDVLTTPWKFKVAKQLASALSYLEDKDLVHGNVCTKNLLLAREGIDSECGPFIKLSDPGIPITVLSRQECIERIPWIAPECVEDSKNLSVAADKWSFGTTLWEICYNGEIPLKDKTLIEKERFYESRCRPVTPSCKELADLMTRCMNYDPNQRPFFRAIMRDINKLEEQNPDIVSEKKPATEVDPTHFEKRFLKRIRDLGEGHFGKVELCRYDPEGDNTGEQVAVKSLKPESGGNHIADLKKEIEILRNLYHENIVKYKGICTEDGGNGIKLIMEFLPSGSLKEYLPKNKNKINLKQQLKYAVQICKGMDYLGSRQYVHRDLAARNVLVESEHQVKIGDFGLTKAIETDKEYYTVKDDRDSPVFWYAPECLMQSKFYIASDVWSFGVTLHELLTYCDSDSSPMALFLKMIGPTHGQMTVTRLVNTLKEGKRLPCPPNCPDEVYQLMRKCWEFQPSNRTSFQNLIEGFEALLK
Tyk2, sequence (P29597 whole entry): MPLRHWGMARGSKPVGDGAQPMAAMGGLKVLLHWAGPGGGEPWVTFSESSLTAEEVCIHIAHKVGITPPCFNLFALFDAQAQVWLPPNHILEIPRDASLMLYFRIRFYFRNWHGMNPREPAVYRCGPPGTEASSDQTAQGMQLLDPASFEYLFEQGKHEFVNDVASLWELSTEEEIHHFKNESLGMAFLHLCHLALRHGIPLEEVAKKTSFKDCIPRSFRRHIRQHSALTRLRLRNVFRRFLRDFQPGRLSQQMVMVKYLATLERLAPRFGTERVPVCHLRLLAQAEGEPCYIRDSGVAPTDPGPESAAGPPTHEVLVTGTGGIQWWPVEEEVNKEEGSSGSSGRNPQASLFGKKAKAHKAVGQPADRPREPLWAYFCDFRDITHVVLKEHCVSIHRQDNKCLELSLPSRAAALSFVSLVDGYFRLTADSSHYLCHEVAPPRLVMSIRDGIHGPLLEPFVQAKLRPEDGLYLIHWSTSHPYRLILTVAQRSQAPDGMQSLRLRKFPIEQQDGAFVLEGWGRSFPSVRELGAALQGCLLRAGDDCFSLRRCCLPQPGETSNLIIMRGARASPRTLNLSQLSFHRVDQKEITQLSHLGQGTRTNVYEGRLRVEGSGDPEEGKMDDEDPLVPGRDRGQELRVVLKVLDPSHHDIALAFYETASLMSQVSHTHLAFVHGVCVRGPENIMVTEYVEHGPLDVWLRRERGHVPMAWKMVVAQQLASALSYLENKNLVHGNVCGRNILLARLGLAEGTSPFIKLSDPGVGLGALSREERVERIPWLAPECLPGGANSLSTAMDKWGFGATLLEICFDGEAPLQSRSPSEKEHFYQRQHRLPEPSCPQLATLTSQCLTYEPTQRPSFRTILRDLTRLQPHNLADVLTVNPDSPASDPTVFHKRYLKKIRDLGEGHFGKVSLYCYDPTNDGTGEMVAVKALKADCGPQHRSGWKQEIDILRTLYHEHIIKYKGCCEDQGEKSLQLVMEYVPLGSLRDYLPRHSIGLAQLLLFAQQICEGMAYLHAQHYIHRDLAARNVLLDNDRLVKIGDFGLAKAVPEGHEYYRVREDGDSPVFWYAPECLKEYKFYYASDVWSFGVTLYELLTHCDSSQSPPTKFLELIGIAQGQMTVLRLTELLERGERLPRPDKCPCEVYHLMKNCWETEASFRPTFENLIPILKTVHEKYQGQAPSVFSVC

## C=CC(=O)N1CC(CCn2c(=O)ccc3cnc(Nc4ccc(N5CCN(C(=O)CSC)CC5)cc4)nc32)C1 [Example 13, 8-(2-(1-acryloylazetidin-3-yl)ethyl)-2-((4-(4-(2-(methylthio)acetyl)piperazin-1-yl)phenyl)amino)pyrido[2,3-d]pyrimidin-7(8H)-one]
[1]
  Caco Kp: A (A represents a value below 5×10^−6 cm/sec)
[2]
  Tyk 2 (pKi): E (E represents a pKi value of 7 or below (Ki of 100 nM or above))
[3]
  Kp: > 1000
[4]
  JAK 2 (pKi): E (E represents a pKi value of 7 or below (Ki of 100 nM or above))
[5]
  JAK 1 (pKi): E (E represents a pKi value of 7 or below (Ki of 100 nM or above))

## C=CC(=O)N1CC(CCn2c(=O)ccc3cnc(Nc4ccc(N5CCN(C(C)=O)CC5)cc4)nc32)C1 [Example 2, 2-((4-(4-acetylpiperazin-1-yl)phenyl)amino)-8-(2-(1-acryloylazetidin-3-yl)ethyl)pyrido[2,3-d]pyrimidin-7(8H)-one]
[1]
  Caco Kp: A (A represents a value below 5×10^−6 cm/sec)
[2]
  Tyk 2 (pKi): E (E represents a pKi value of 7 or below (Ki of 100 nM or above))
[3]
  Kp: > 100
[4]
  JAK 2 (pKi): E (E represents a pKi value of 7 or below (Ki of 100 nM or above))
[5]
  JAK 1 (pKi): E (E represents a pKi value of 7 or below (Ki of 100 nM or above))

## C=CC(=O)N1CCN(CCn2c(=O)ccc3cnc(Nc4ccc(N5CCN(C(=O)CCSC)CC5)cc4)nc32)CC1 [Example 4, 8-(2-(4-acryloylpiperazin-1-yl)ethyl)-2-((4-(4-(3-(methylthio)propanoyl)piperazin-1-yl)phenyl)amino)pyrido[2,3-d]pyrimidin-7(8H)-one]
[1]
  Caco Kp: A (A represents a value below 5×10^−6 cm/sec)
[2]
  Tyk 2 (pKi): E (E represents a pKi value of 7 or below (Ki of 100 nM or above))
[3]
  Kp: > 1000
[4]
  JAK 2 (pKi): E (E represents a pKi value of 7 or below (Ki of 100 nM or above))
[5]
  JAK 1 (pKi): E (E represents a pKi value of 7 or below (Ki of 100 nM or above))

## C=CC(=O)N1CCN(CCn2c(=O)ccc3cnc(Nc4ccc(N5CCN(C)CC5)cc4)nc32)CC1 [Example 1, 8-(2-(4-acryloylpiperazin-1-yl)ethyl)-2-((4-(4-methylpiperazin-1-yl)phenyl)amino)pyrido[2,3-d]pyrimidin-7(8H)-one]
[1]
  Caco Kp: B (B represents a value between 5×10^−6 and 10×10^−6 cm/sec)
[2]
  Tyk 2 (pKi): E (E represents a pKi value of 7 or below (Ki of 100 nM or above))
[3]
  Kp: > 1000
[4]
  JAK 2 (pKi): E (E represents a pKi value of 7 or below (Ki of 100 nM or above))
[5]
  JAK 1 (pKi): E (E represents a pKi value of 7 or below (Ki of 100 nM or above))

## C=CC(=O)N1CC(CCn2c(=O)ccc3cnc(Nc4cccc(N5CCN(C(=O)CCSC)CC5)c4)nc32)C1 [Example 7, 8-(2-(1-acryloylazetidin-3-yl)ethyl)-2-((3-(4-(3-(methylthio)propanoyl)piperazin-1-yl)phenyl)amino)pyrido[2,3-d]pyrimidin-7(8H)-one]
[1]
  Caco Kp: B (B represents a value between 5×10^−6 and 10×10^−6 cm/sec)
[2]
  Tyk 2 (pKi): E (E represents a pKi value of 7 or below (Ki of 100 nM or above))
[3]
  Kp: > 100
[4]
  JAK 2 (pKi): E (E represents a pKi value of 7 or below (Ki of 100 nM or above))
[5]
  JAK 1 (pKi): E (E represents a pKi value of 7 or below (Ki of 100 nM or above))

## C=CC(=O)N1CCN(CCn2c(=O)ccc3cnc(Nc4cnn(C)c4)nc32)[C@@H](CC)C1 [Example 12, (S)-8-(2-(4-acryloyl-2-ethylpiperazin-1-yl)ethyl)-2-((1-methyl-1H-pyrazol-4-yl)amino)pyrido[2,3-d]pyrimidin-7(8H)-one]
[1]
  Caco Kp: B (B represents a value between 5×10^−6 and 10×10^−6 cm/sec)
[2]
  Tyk 2 (pKi): E (E represents a pKi value of 7 or below (Ki of 100 nM or above))
[3]
  Kp: > 50
[4]
  JAK 2 (pKi): E (E represents a pKi value of 7 or below (Ki of 100 nM or above))
[5]
  JAK 1 (pKi): E (E represents a pKi value of 7 or below (Ki of 100 nM or above))

## C=CC(=O)N1CC(CCn2c(=O)ccc3cnc(Nc4cccc(CN5CCN(C(=O)N(C)C)CC5)c4)nc32)C1 [Example 5, 4-(3-((8-(2-(1-acryloylazetidin-3-yl)ethyl)-7-oxo-7,8-dihydropyrido[2,3-d]pyrimidin-2-yl)amino)benzyl)-N,N-dimethylpiperazine-1-carboxamide]
[1]
  Caco Kp: A (A represents a value below 5×10^−6 cm/sec)
[2]
  Tyk 2 (pKi): E (E represents a pKi value of 7 or below (Ki of 100 nM or above))
[3]
  Kp: > 100
[4]
  JAK 2 (pKi): E (E represents a pKi value of 7 or below (Ki of 100 nM or above))
[5]
  JAK 1 (pKi): E (E represents a pKi value of 7 or below (Ki of 100 nM or above))
